# Test results published in patent US12371464B2, “Polypeptides and uses thereof” (MEDIMMUNE LIMITED, priority 2020, dated 2025).
# Numbered stars: 1 amine (or outer) side, 2 acyl side, 3 side chain; on linkers, the order of the positions; unused ones are H or OH. Bridge positions count the residues as written; N and C are the ends. Square brackets hold non-standard residues; d marks the D form. Side chains are listed from the residue outwards. Peptide text beside a SMILES is read from it. * marks the point of attachment. C20 diacid = O=C(O)CCCCCCCCCCCCCCCCCCC(=O)*; C18 diacid = O=C(O)CCCCCCCCCCCCCCCCC(=O)*; γGlu = O=C(O)[C@H](CCC(=O)[*:2])N[*:1]; αMeF = C[C@](N)(Cc1ccccc1)C(=O)O; Aib = CC(C)(N)C(=O)O
# Assay: Thioflavin T fibrillation assay
# Format: physicochemical
# Details: 1 mg/mL in 25 mM sodium acetate buffer pH 4.0, 37° C., 6 days, orbital shaking; >144 h = no increase
# Description: Peptide aggregation that form fibrils is an indication of physical instability. Fibril formation in solution poses a significant risk for the stability of injectable peptide drug products. Thioflavin T (ThT) fibrillation assay is a useful tool to assess the aggregation kinetics of a peptide or protein under accelerated and stressed conditions that can be used to forecast the long-term viability of a compound in solution. ThT can selectively bind amyloid fibrils and the resultant complex emits strong fluorescence signal at 482 nm when excited at 450 nm (Anal Biochem. 1989 March; 177 (2): 244-9). Monitoring of the change in fluorescence signal is an established method to study the fibril forming potential of peptides and proteins. ThT (purchased from Sigma Aldrich) stock solution is prepared by dissolving the ThT powder in Milli-Q water and filtered to obtain a 0.25 mM solution. The concentration of the solution is measured at 412 nm using an extinction coefficient of 36 mM-1 cm-1. Test peptides were dissolved at 1 mg/mL in 25 mM sodium acetate buffer pH 4.0. 100 μL aliquot of peptide solution and 5 μL aliquot of ThT solution were placed in a clear bottom black fluorescence 96-well plate. 5 replicates of each test samples were placed in the same row of the plate. Buffer was placed in control wells for baseline correction. All empty wells were filled with water to prevent evaporation. The plate was sealed with aluminium seal and placed in fluorescence plate reader and incubated for 6 days at 37° C. with intermittent orbital shaking at 500 to 750 rpm. The fluorescence intensity was measured every 30 min using excitation at 444 nm and emission at 480 nm. The fibril forming potential of the test peptides was determined by measuring the average time taken to detect an increase in baseline corrected fluorescence intensity.
row,Compound,Time taken to detect increase in fluorescence intensity
1,"CC[C@H](C)[C@H](NC(=O)[C@@H]1CCCN1C(=O)CNC(=O)[C@](C)(Cc1ccccc1)NC(=O)[C@H](CC(N)=O)NC(=O)[C@H](CC(N)=O)NC(=O)[C@H](CO)NC(=O)[C@H](CO)NC(=O)[C@H](Cc1c[nH]cn1)NC(=O)[C@@H](NC(=O)[C@H](CC(C)C)NC(=O)[C@H](Cc1ccccc1)NC(=O)[C@H](CC(N)=O)NC(=O)[C@H](C)NC(=O)[C@H](CC(C)C)NC(=O)[C@H](CCCNC(=N)N)NC(=O)[C@H](CCC(N)=O)NC(=O)[C@@H](NC(=O)[C@H](C)NC(=O)[C@@H]1CSSC[C@H](NC(=O)[C@@H](N)CCCCNC(=O)CC[C@H](NC(=O)CC[C@H](NC(=O)CCCCCCCCCCCCCCCCC(=O)O)C(=O)O)C(=O)O)C(=O)N[C@@H](CC(N)=O)C(=O)N[C@@H]([C@@H](C)O)C(=O)N[C@@H](C)C(=O)N[C@@H]([C@@H](C)O)C(=O)N1)[C@@H](C)O)C(C)C)C(=O)N[C@@H](CC(C)C)C(=O)N1CCC[C@H]1C(=O)N1CCC[C@H]1C(=O)N[C@H](C(=O)N[C@@H](CC(N)=O)C(=O)N[C@H](C(=O)NCC(=O)N[C@@H](CO)C(=O)N[C@@H](CCCNC(=N)N)C(=O)N[C@H](C(=O)N[C@@H](Cc1ccc(O)cc1)C(N)=O)[C@@H](C)O)C(C)C)[C@@H](C)O [Peptide 21, K(γE-γE-C18diacid)[CNTATC]ATQRLANFLVHSSNN(αMePhe)GPILPPTNVGSRTY-amide] (H-K([γGlu-γGlu-C18 diacid])CNTATCATQRLANFLVHSSNN[αMeF]GPILPPTNVGSRTY-NH2; disulfide 2-7; N-terminus assumed)",>144 h
2,"CC[C@H](C)[C@H](NC(=O)[C@@H]1CCCN1C(=O)CNC(=O)[C@H](Cc1ccccc1)NC(=O)[C@H](CC(N)=O)NC(=O)C(C)(C)NC(=O)[C@H](CO)NC(=O)[C@H](CO)NC(=O)[C@H](Cc1c[nH]cn1)NC(=O)[C@H](CCCNC(=N)N)NC(=O)[C@H](CC(C)C)NC(=O)[C@H](Cc1ccccc1)NC(=O)[C@H](CC(N)=O)NC(=O)[C@H](C)NC(=O)[C@H](CC(C)C)NC(=O)[C@H](CCCNC(=N)N)NC(=O)[C@H](CCC(N)=O)NC(=O)[C@@H](NC(=O)[C@H](C)NC(=O)[C@@H]1CSSC[C@H](NC(=O)[C@@H](N)CCCCNC(=O)CC[C@H](NC(=O)CCCCCCCCCCCCCCCCC(=O)O)C(=O)O)C(=O)N[C@@H](CC(N)=O)C(=O)N[C@@H]([C@@H](C)O)C(=O)N[C@@H](C)C(=O)N[C@@H]([C@@H](C)O)C(=O)N1)[C@@H](C)O)C(=O)N[C@@H](CC(C)C)C(=O)N1CCC[C@H]1C(=O)N1CCC[C@H]1C(=O)N[C@H](C(=O)N[C@@H](CC(N)=O)C(=O)N[C@H](C(=O)NCC(=O)N[C@@H](CO)C(=O)N[C@@H](CC(N)=O)C(=O)N[C@H](C(=O)N[C@@H](Cc1ccc(O)cc1)C(N)=O)[C@@H](C)O)C(C)C)[C@@H](C)O [Peptide 48, K(γE-C18diacid)[CNTATC]ATQRLANFLRHSS(Aib)NFGPILPPTNVGSNTY-amide] (H-K([γGlu-C18 diacid])CNTATCATQRLANFLRHSS[Aib]NFGPILPPTNVGSNTY-NH2; disulfide 2-7; N-terminus assumed)",>144 h
3,CC[C@H](C)[C@H](NC(=O)[C@@H]1CCCN1C(=O)CNC(=O)[C@H](Cc1ccccc1)NC(=O)[C@H](CC(N)=O)NC(=O)[C@H](CC(N)=O)NC(=O)[C@H](CO)NC(=O)[C@H](CO)NC(=O)[C@H](Cc1c[nH]cn1)NC(=O)[C@@H](NC(=O)[C@H](CC(C)C)NC(=O)[C@H](Cc1ccccc1)NC(=O)[C@H](CC(N)=O)NC(=O)[C@H](C)NC(=O)[C@H](CC(C)C)NC(=O)[C@H](CCCNC(=N)N)NC(=O)[C@H](CCC(N)=O)NC(=O)[C@@H](NC(=O)[C@H](C)NC(=O)[C@@H]1CSSC[C@H](NC(=O)[C@H](CCCCN)NC(=O)CC[C@H](NC(=O)CCCCCCCCCCCCCCCCCCC(=O)O)C(=O)O)C(=O)N[C@@H](CC(N)=O)C(=O)N[C@@H]([C@@H](C)O)C(=O)N[C@@H](C)C(=O)N[C@@H]([C@@H](C)O)C(=O)N1)[C@@H](C)O)C(C)C)C(=O)N[C@@H](CC(C)C)C(=O)N1CCC[C@H]1C(=O)N1CCC[C@H]1C(=O)N[C@H](C(=O)N[C@@H](CC(N)=O)C(=O)N[C@H](C(=O)NCC(=O)N[C@@H](CO)C(=O)N[C@@H](CC(N)=O)C(=O)N[C@H](C(=O)N[C@@H](Cc1ccc(O)cc1)C(N)=O)[C@@H](C)O)C(C)C)[C@@H](C)O [Peptide 112] ({C20 diacid-γGlu}-KCNTATCATQRLANFLVHSSNNFGPILPPTNVGSNTY-NH2; disulfide 2-7),<5 h
4,"CC[C@H](C)[C@H](NC(=O)[C@@H]1CCCN1C(=O)CNC(=O)[C@H](Cc1ccccc1)NC(=O)[C@H](CC(N)=O)NC(=O)[C@H](CC(N)=O)NC(=O)[C@H](CO)NC(=O)[C@H](CO)NC(=O)[C@H](Cc1c[nH]cn1)NC(=O)[C@@H](NC(=O)[C@H](CC(C)C)NC(=O)[C@H](Cc1ccccc1)NC(=O)[C@H](CC(N)=O)NC(=O)[C@H](C)NC(=O)[C@H](CC(C)C)NC(=O)[C@H](CCCNC(=N)N)NC(=O)[C@H](CCC(N)=O)NC(=O)[C@@H](NC(=O)[C@H](C)NC(=O)[C@@H]1CSSC[C@H](NC(=O)[C@@H](N)CCCCNC(=O)CC[C@H](NC(=O)CCCCCCCCCCCCCCCCC(=O)O)C(=O)O)C(=O)N[C@@H](CC(N)=O)C(=O)N[C@@H]([C@@H](C)O)C(=O)N[C@@H](C)C(=O)N[C@@H]([C@@H](C)O)C(=O)N1)[C@@H](C)O)C(C)C)C(=O)N[C@H](CC(C)C)C(=O)N1CCC[C@H]1C(=O)N1CCC[C@H]1C(=O)N[C@H](C(=O)N[C@@H](CC(N)=O)C(=O)N[C@H](C(=O)NCC(=O)N[C@@H](CO)C(=O)N[C@@H](CC(N)=O)C(=O)N[C@H](C(=O)N[C@@H](Cc1ccc(O)cc1)C(N)=O)[C@@H](C)O)C(C)C)[C@@H](C)O [Peptide 103, K(γE-C18diacid)[CNTATC]ATQRLANFLVHSSNNFGPI(dL)PPTNVGSNTY-amide] (H-K([γGlu-C18 diacid])CNTATCATQRLANFLVHSSNNFGPI[dL]PPTNVGSNTY-NH2; disulfide 2-7; N-terminus assumed)",<5 h
5,"CC[C@H](C)[C@H](NC(=O)[C@@H]1CCCN1C(=O)CNC(=O)[C@](C)(Cc1ccccc1)NC(=O)[C@H](CC(N)=O)NC(=O)[C@H](CC(N)=O)NC(=O)[C@H](CO)NC(=O)[C@H](CO)NC(=O)[C@H](Cc1c[nH]cn1)NC(=O)[C@H](CCCNC(=N)N)NC(=O)[C@H](CC(C)C)NC(=O)[C@H](Cc1ccccc1)NC(=O)[C@H](CCC(=O)O)NC(=O)[C@H](C)NC(=O)[C@H](CC(C)C)NC(=O)[C@H](CCCNC(=N)N)NC(=O)[C@H](CCC(N)=O)NC(=O)[C@@H](NC(=O)[C@H](C)NC(=O)[C@@H]1CSSC[C@H](NC(=O)CC[C@H](NC(=O)CCCCCCCCCCCCCCCCC(=O)O)C(=O)O)C(=O)N[C@@H](CC(N)=O)C(=O)N[C@@H]([C@@H](C)O)C(=O)N[C@@H](C)C(=O)N[C@@H]([C@@H](C)O)C(=O)N1)[C@@H](C)O)C(=O)N[C@@H](CC(C)C)C(=O)N1CCC[C@H]1C(=O)N1CCC[C@H]1C(=O)N[C@H](C(=O)N[C@@H](CC(N)=O)C(=O)N[C@H](C(=O)NCC(=O)N[C@@H](CO)C(=O)N[C@@H](CC(N)=O)C(=O)N[C@H](C(=O)N[C@@H](Cc1ccc(O)cc1)C(N)=O)[C@@H](C)O)C(C)C)[C@@H](C)O [Peptide 10, C18diacid-γE-[CNTATC]ATQRLAEFLRHSSNN(αMePhe)GPILPPTNVGSNTY-amide] ({C18 diacid-γGlu}-CNTATCATQRLAEFLRHSSNN[αMeF]GPILPPTNVGSNTY-NH2; disulfide 1-6)",>144 h
6,"CC[C@H](C)[C@H](NC(=O)[C@@H]1CCCN1C(=O)CNC(=O)[C@](C)(Cc1ccccc1)NC(=O)[C@H](CC(N)=O)NC(=O)[C@H](CC(N)=O)NC(=O)[C@H](CO)NC(=O)[C@H](CO)NC(=O)[C@H](Cc1c[nH]cn1)NC(=O)[C@@H](NC(=O)[C@H](CC(C)C)NC(=O)[C@H](Cc1ccccc1)NC(=O)[C@H](CC(N)=O)NC(=O)[C@H](C)NC(=O)[C@H](CC(C)C)NC(=O)[C@H](CCCNC(=N)N)NC(=O)[C@H](CCC(N)=O)NC(=O)[C@@H](NC(=O)[C@H](C)NC(=O)[C@@H]1CSSC[C@H](NC(=O)[C@@H](N)CCCCNC(=O)CC[C@H](NC(=O)CC[C@H](NC(=O)CCCCCCCCCCCCCCCCC(=O)O)C(=O)O)C(=O)O)C(=O)N[C@@H](CC(N)=O)C(=O)N[C@@H]([C@@H](C)O)C(=O)N[C@@H](C)C(=O)N[C@@H]([C@@H](C)O)C(=O)N1)[C@@H](C)O)C(C)C)C(=O)N[C@@H](CC(C)C)C(=O)N1CCC[C@H]1C(=O)N1CCC[C@H]1C(=O)N[C@H](C(=O)N[C@@H](CC(N)=O)C(=O)N[C@H](C(=O)NCC(=O)N[C@@H](CO)C(=O)N[C@@H](CC(N)=O)C(=O)N[C@H](C(=O)N[C@@H](Cc1ccc(O)cc1)C(N)=O)[C@@H](C)O)C(C)C)[C@@H](C)O [Peptide 13, K(γE-γE-C18diacid)[CNTATC]ATQRLANFLVHSSNN(αMePhe)GPILPPTNVGSNTY-amide] (H-K([γGlu-γGlu-C18 diacid])CNTATCATQRLANFLVHSSNN[αMeF]GPILPPTNVGSNTY-NH2; disulfide 2-7; N-terminus assumed)",25 h

# Same assay, conditions: as seen in Table 7
row,Compound,fibril-forming tendency on conjugating pramlintide to a lipid
1,CC[C@H](C)[C@H](NC(=O)[C@@H]1CCCN1C(=O)CNC(=O)[C@H](Cc1ccccc1)NC(=O)[C@H](CC(N)=O)NC(=O)[C@H](CC(N)=O)NC(=O)[C@H](CO)NC(=O)[C@H](CO)NC(=O)[C@H](Cc1c[nH]cn1)NC(=O)[C@@H](NC(=O)[C@H](CC(C)C)NC(=O)[C@H](Cc1ccccc1)NC(=O)[C@H](CC(N)=O)NC(=O)[C@H](C)NC(=O)[C@H](CC(C)C)NC(=O)[C@H](CCCNC(=N)N)NC(=O)[C@H](CCC(N)=O)NC(=O)[C@@H](NC(=O)[C@H](C)NC(=O)[C@@H]1CSSC[C@H](NC(=O)[C@H](CCCCN)NC(=O)CC[C@H](NC(=O)CCCCCCCCCCCCCCCCCCC(=O)O)C(=O)O)C(=O)N[C@@H](CC(N)=O)C(=O)N[C@@H]([C@@H](C)O)C(=O)N[C@@H](C)C(=O)N[C@@H]([C@@H](C)O)C(=O)N1)[C@@H](C)O)C(C)C)C(=O)N[C@@H](CC(C)C)C(=O)N1CCC[C@H]1C(=O)N1CCC[C@H]1C(=O)N[C@H](C(=O)N[C@@H](CC(N)=O)C(=O)N[C@H](C(=O)NCC(=O)N[C@@H](CO)C(=O)N[C@@H](CC(N)=O)C(=O)N[C@H](C(=O)N[C@@H](Cc1ccc(O)cc1)C(N)=O)[C@@H](C)O)C(C)C)[C@@H](C)O [Peptide 112] ({C20 diacid-γGlu}-KCNTATCATQRLANFLVHSSNNFGPILPPTNVGSNTY-NH2; disulfide 2-7),increases the fibril-forming tendency
